Source: ChEMBL document CHEMBL1201862, “PubChem BioAssay data set” (2004)
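Grown in 96-well plates, cells were treated for 48 hours with each compound at five concentrations. Insufficient inhibition: endpoint recorded as highest concentration tested. Abbreviation: GI50, concentration required for 50% inhibition of growth.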 Activity calls are given as the source filed them. Cut-off read from the data, not from the text of the source: active = GI50 up to about 1.1 µM and inactive = higher.

Key:
Assay in all cases: growth of human tumour cells (NCI), 48 h
[1] = system: SNB-19
[2] = system: NCI/ADR-RES
[3] = system: HL-60
[4] = system: HCT-116
[5] = system: Hs-578T
[6] = system: SR
[7] = system: SF-268
[8] = system: SK-MEL-5
[9] = system: OVCAR-5
[10] = system: BT-549
[11] = system: T47D
[12] = system: DU-145
[13] = system: SF-539
[14] = system: Malme-3M
[15] = system: CAKI-1
[16] = system: OVCAR-3
[17] = system: SW-620
[18] = system: MOLT-4
[19] = system: KM12
[20] = system: RPMI-8226

| SMILES | GI50 [1] | GI50 [2] | GI50 [3] | GI50 [4] | GI50 [5] | GI50 [6] | GI50 [7] | GI50 [8] | GI50 [9] | GI50 [10] | GI50 [11] | GI50 [12] | GI50 [13] | GI50 [14] | GI50 [15] | GI50 [16] | GI50 [17] | GI50 [18] | GI50 [19] | GI50 [20] |
| --- | --- | --- | --- | --- | --- | --- | --- | --- | --- | --- | --- | --- | --- | --- | --- | --- | --- | --- | --- | --- |
| Cn1c(=O)c2c(nc(C(=N)SCC(=O)O)n2C)n(C)c1=O | 52.7 µM (inactive) | 33.3 µM (inactive) | 27.7 µM (inactive) | 26.5 µM (inactive) | 97.7 µM (inactive) | 22.7 µM (inactive) | 39.3 µM (inactive) | 16 µM (inactive) | 47.5 µM (inactive) | 41.1 µM (inactive) | 33.2 µM (inactive) | 61.2 µM (inactive) | 32.8 µM (inactive) | 45.1 µM (inactive) | 26 µM (inactive) | 43.5 µM (inactive) | 52.1 µM (inactive) | 22.2 µM (inactive) | 34.5 µM (inactive) | 42.2 µM (inactive) |
| C#CCOC(=O)C(=[N+]=[N-])C(=O)CC(C)C | > 10 µM (inactive) | > 10 µM (inactive) | > 10 µM (inactive) | > 10 µM (inactive) | > 10 µM (inactive) | > 10 µM (inactive) | > 10 µM (inactive) | > 10 µM (inactive) | > 10 µM (inactive) | > 10 µM (inactive) | > 10 µM (inactive) | > 10 µM (inactive) | > 10 µM (inactive) | > 10 µM (inactive) | > 10 µM (inactive) | > 10 µM (inactive) | > 10 µM (inactive) | > 10 µM (inactive) | > 10 µM (inactive) | > 10 µM (inactive) |
| O=c1cc(-c2ccccc2)[nH]c2cccc(S)c12 | 0.375 µM (active) | 0.0796 µM (active) | 0.201 µM (active) | 0.0867 µM (active) | 0.205 µM (active) | 0.172 µM (active) | 1.25 µM (inactive) | 0.0944 µM (active) | > 100 µM (inactive) | 13.6 µM (inactive) | 8.32 µM (inactive) | 0.393 µM (active) | 0.2 µM (active) | 0.153 µM (active) | – | 3.14 µM (inactive) | 0.0566 µM (active) | 0.37 µM (active) | 0.277 µM (active) | 0.424 µM (active) |
| CC[C@@H]1CN(C)[C@H]2Cc3c([nH]c4ccccc34)C(=O)C[C@H]1C2C(=O)OC (stereo partly specified) | > 100 µM (inactive) | > 95.7 µM (inactive) | > 89.3 µM (inactive) | > 100 µM (inactive) | > 100 µM (inactive) | > 100 µM (inactive) | > 100 µM (inactive) | > 100 µM (inactive) | > 100 µM (inactive) | > 100 µM (inactive) | > 100 µM (inactive) | > 100 µM (inactive) | > 100 µM (inactive) | > 100 µM (inactive) | > 100 µM (inactive) | > 100 µM (inactive) | > 100 µM (inactive) | > 93.8 µM (inactive) | > 100 µM (inactive) | > 88.5 µM (inactive) |
| Nc1ccc(S(=O)(=O)Nc2nc3ccccc3nc2Nc2ccc(S(N)(=O)=O)cc2)cc1 | 25.2 µM (inactive) | 45.9 µM (inactive) | 25.1 µM (inactive) | 38.5 µM (inactive) | 23 µM (inactive) | 37 µM (inactive) | 17.5 µM (inactive) | 49.8 µM (inactive) | > 100 µM (inactive) | 20.2 µM (inactive) | 40.7 µM (inactive) | 44.9 µM (inactive) | 31.8 µM (inactive) | 22.8 µM (inactive) | 68.7 µM (inactive) | 32.4 µM (inactive) | 36.9 µM (inactive) | 15.4 µM (inactive) | 33 µM (inactive) | 33.7 µM (inactive) |
| O=C1NC(NNc2ccccc2)=N/C1=C\c1ccccc1O | > 100 µM (inactive) | 29.6 µM (inactive) | 28.8 µM (inactive) | 48.2 µM (inactive) | > 100 µM (inactive) | > 100 µM (inactive) | > 100 µM (inactive) | – | > 100 µM (inactive) | 21 µM (inactive) | 34.1 µM (inactive) | 67 µM (inactive) | 77.6 µM (inactive) | > 100 µM (inactive) | 63.1 µM (inactive) | 96.2 µM (inactive) | 58.1 µM (inactive) | 51.6 µM (inactive) | 33.2 µM (inactive) | 81.5 µM (inactive) |
| CCOC(=O)C(Cc1cn(S(=O)(=O)c2ccc(C)cc2)cn1)P(=O)(OCC)OCC (stereo unspecified) | > 100 µM (inactive) | > 100 µM (inactive) | > 100 µM (inactive) | > 100 µM (inactive) | > 100 µM (inactive) | > 100 µM (inactive) | > 100 µM (inactive) | > 100 µM (inactive) | > 100 µM (inactive) | > 100 µM (inactive) | > 100 µM (inactive) | > 100 µM (inactive) | > 100 µM (inactive) | > 100 µM (inactive) | > 100 µM (inactive) | > 100 µM (inactive) | > 100 µM (inactive) | > 100 µM (inactive) | > 100 µM (inactive) | > 100 µM (inactive) |
| O=c1c2ccccc2[nH]c(=S)n1-c1ccc(/N=N/c2cccc3cc(O)ccc23)cc1 | > 100 µM (inactive) | > 100 µM (inactive) | 22.3 µM (inactive) | > 100 µM (inactive) | > 100 µM (inactive) | 94.6 µM (inactive) | > 100 µM (inactive) | 31.8 µM (inactive) | 74.1 µM (inactive) | > 100 µM (inactive) | > 100 µM (inactive) | > 100 µM (inactive) | > 100 µM (inactive) | > 100 µM (inactive) | > 100 µM (inactive) | > 100 µM (inactive) | > 100 µM (inactive) | > 100 µM (inactive) | > 100 µM (inactive) | > 100 µM (inactive) |
| CC(C)(C)c1cc2c(O)c(c1)Cc1cc(C(C#N)(Cc3ccc4ccccc4c3)Cc3ccc4ccccc4c3)cc(c1O)Cc1cc(C(C)(C)C)cc(c1O)Cc1cc(C(C#N)(Cc3ccc4ccccc4c3)Cc3ccc4ccccc4c3)cc(c1O)C2 | > 100 µM (inactive) | > 100 µM (inactive) | > 100 µM (inactive) | > 100 µM (inactive) | > 100 µM (inactive) | 60.5 µM (inactive) | > 100 µM (inactive) | > 100 µM (inactive) | > 100 µM (inactive) | > 100 µM (inactive) | > 100 µM (inactive) | > 100 µM (inactive) | > 100 µM (inactive) | > 100 µM (inactive) | > 100 µM (inactive) | > 100 µM (inactive) | > 100 µM (inactive) | > 100 µM (inactive) | > 100 µM (inactive) | > 100 µM (inactive) |
| N#Cc1ccc(-c2nc3c(N)nc(-c4ccccc4)nc3o2)cc1 | 55.1 µM (inactive) | 40.3 µM (inactive) | > 100 µM (inactive) | 31.8 µM (inactive) | > 100 µM (inactive) | > 100 µM (inactive) | > 100 µM (inactive) | > 100 µM (inactive) | > 100 µM (inactive) | > 100 µM (inactive) | > 100 µM (inactive) | 84.1 µM (inactive) | 5.6 µM (inactive) | – | > 100 µM (inactive) | 61.4 µM (inactive) | > 100 µM (inactive) | > 100 µM (inactive) | > 100 µM (inactive) | > 100 µM (inactive) |
| COC(=O)[C@@H]1c2cc3c(c(O)c2[C@@H](OC2OC(C)C(OC)C(C)(OC)C2OC)C[C@]1(C)O)C(=O)c1c(O)cc2c(c1C3=O)O[C@H]1O[C@]2(C)[C@H](O)[C@@H](N(C)C)[C@@H]1O (stereo partly specified) | 0.00502 µM (active) | 0.299 µM (active) | 0.0148 µM (active) | 0.00189 µM (active) | 0.0203 µM (active) | 0.00294 µM (active) | 0.00585 µM (active) | 0.00849 µM (active) | 0.0815 µM (active) | 0.0197 µM (active) | 0.0276 µM (active) | 0.0859 µM (active) | 0.0246 µM (active) | 0.00453 µM (active) | 0.0419 µM (active) | 0.0351 µM (active) | 0.00456 µM (active) | 0.0146 µM (active) | 0.0065 µM (active) | 0.00243 µM (active) |
| CC(=O)Oc1ccc2c(c1)CC[C@@H]1C2[C@@H](O[N+](=O)[O-])C[C@@]2(C)C1CC[C@@H]2O (stereo partly specified) | 35.6 µM (inactive) | 26.9 µM (inactive) | 9.2 µM (inactive) | 29.4 µM (inactive) | 14.4 µM (inactive) | 16.4 µM (inactive) | 32.6 µM (inactive) | 24.7 µM (inactive) | 33 µM (inactive) | 62.4 µM (inactive) | 47.4 µM (inactive) | 28.7 µM (inactive) | 25.6 µM (inactive) | 32.1 µM (inactive) | 78 µM (inactive) | 35.1 µM (inactive) | 35.5 µM (inactive) | 24.5 µM (inactive) | 29.9 µM (inactive) | 21 µM (inactive) |
| CO/C=C(/C(=O)OC)c1ccccc1[C@@H]1CC1c1cccc(F)c1 (stereo partly specified) | 53.3 µM (inactive) | 30.5 µM (inactive) | 18.4 µM (inactive) | 21.1 µM (inactive) | 41.1 µM (inactive) | 21.2 µM (inactive) | 37.5 µM (inactive) | 12.3 µM (inactive) | > 100 µM (inactive) | 25.4 µM (inactive) | 20.4 µM (inactive) | 33 µM (inactive) | 28.4 µM (inactive) | 16 µM (inactive) | 18.6 µM (inactive) | 27.6 µM (inactive) | – | 29.2 µM (inactive) | 24.7 µM (inactive) | 19.5 µM (inactive) |
| Cc1c2cc[n+](C)cc2c(C)c2c1[nH]c1ccc(Cl)cc12 | 0.274 µM (active) | 2.96 µM (inactive) | 1.94 µM (inactive) | 0.881 µM (active) | 0.295 µM (active) | 5.32 µM (inactive) | 0.29 µM (active) | 1.09 µM (active) | 8.32 µM (inactive) | 1.26 µM (inactive) | 1.09 µM (active) | 2.3 µM (inactive) | 0.401 µM (active) | 1.74 µM (inactive) | 1.85 µM (inactive) | 2.07 µM (inactive) | 0.176 µM (active) | 2.31 µM (inactive) | 0.897 µM (active) | 25 µM (inactive) |
